How the values were obtained:
Format in all cases: in vivo
ApoE−/− mice [1] = test: En face lesion size in ApoE−/− mice on high fat diet, A-002 and/or statin (Example 3); settings: 0.02 g/kg pravastatin in diet alone, 12 weeks
Procedure: (§1) Body weight, plasma total cholesterol, and plasma HDL levels were measured for six groups of twelve ApoE^−/− mice. The mice were then placed on a high fat diet for twelve weeks to allow for formation of significant fatty atherosclerotic plaques. The high fat diet was a modified version of the Western diet (TD.88137, Harlan Teklad, Madison, Wis.) consisting of casein (195 g/kg), DL-methionine (3 g/kg), sucrose (341.44 g/kg), corn starch (150 g/kg), anhydrous milkfat (210 g/kg), cholesterol (1.5 g/kg), cellulose (50 g/kg), mineral mix AlN-76 (Teklad; 35 g/kg), calcium carbonate (4 g/kg), vitamin mix (Teklad #40060; 10 g/kg), ethyoxyquin (antioxidant, 0.04 g/kg), and either 0.0156 g/kg (“low dose”) A-002 (Group A), 1.56 g/kg (“high dose”) A-002 (Group B), 0.02 g/kg pravastatin (Group C), low dose A-002 plus 0.02 g/kg pravastatin (Group D), high dose A-002 plus 0.02 g/kg pravastatin (Group E), or vehicle only (Group F). Mice were administered diets A-F in a blinded manner, and food was provided ad libitum. The diet was initially prepared based on the assumption that each mouse weighed 22.5 g and ate 4.5 g/day. Based on body weight and food consumption, the diet was modified over the 12 week course of treatment to adjust for a body weight of 26 g and a food intake of 2.5 g/day. The dosages of A-002 were selected to cover a range of 100-fold based on pharmacokinetics in ApoE^−/− mice as well as toxicology and previously observed efficacy in this model.
After twelve weeks, mice were sacrificed and plasma, heart tissue, and aortic tissue were collected. En face lesion size was determined via digital imaging analysis. Plaque content (as measured as en face lesion) was reduced in mice administered A-002 alone, statin alone, or A-002 in combination with statin. The reduction in plaque content in mice administered A-002 plus statin was substantially greater than the reduction in mice administered either compound alone (Table 2, compare Group D vs. Groups A and C; Group E vs. Groups B and C). Further, the reduction in plaque content in mice administered A-002 plus statin was substantially greater than the sum of the reduction in plaque content in mice administered A-002 alone and mice administered statin alone.

ApoE−/− mice [2] = test: Plasma total cholesterol and HDL levels in ApoE−/− mice, A-002 and/or statin (Example 3); settings: 0.02 g/kg pravastatin in diet alone, 12 weeks
Procedure: as §1
Plasma total cholesterol and HDL levels were measured. Mean levels of total cholesterol were decreased in mice administered A-002 alone or in combination with statin (Table 3, FIG. 6). […] Mean levels of HDL were increased in mice administered A-002 at either dosage (Table 4). This increase was greater in mice administered high dose A-002 plus statin than in mice administered high dose A-002 or statin alone (Table 4 compare Group E vs. Groups B and C; FIG. 7).

[3] = tested on: human subjects with CVD, specifically stable coronary artery disease; test: Serum lipid levels in humans, A-002 twice a day for eight weeks (Example 4)
Procedure: 204 human subjects from the United States with CVD, specifically stable coronary artery disease, were randomized to receive placebo or A-002 via oral administration twice a day over an eight week administration period at dosages of 50 mg, 100 mg, 250 mg, or 500 mg. Levels of various lipids and inflammatory markers were measured at the outset of the trial and at the end of weeks four and/or eight. For data sets with a normal distribution, mean levels of lipids or inflammatory markers were analyzed. For data sets with non-normal distribution, median levels were analyzed. […] In addition, administration of A-002 decreased median levels of CRP (Table 11).
The combined effect of A-002 and statin administration on LDL levels was tested in a population of 332 subjects. This population consisted of the original 204 United States subjects, plus an additional 128 subjects from the Ukraine with stable CAD that received placebo or A-002 based according to the same protocol as the United States subjects. […] Similarly, A-002 decreased LDL levels in subjects receiving a variety of non-statin compounds used in the treatment of CVD, including ezetimibe, AEGR-733/ezetimibe, colesevelam hydrochloride (WelChol®), MK-0524A (Cordaptive®), lisinopril/MC-1 antibody (MC-4232), and Angiotensin Receptor Blocker (ARB)/MC-1 (MC-4262).

[4] = summary Table 20, A-002 alone, statin alone or A-002 plus statin

| SMILES | Change in mean % en face lesion vs. control (ApoE−/− mice [1]) [%] | Mean % en face lesion (ApoE−/− mice [1]) [%] | Mean HDL concentration (ApoE−/− mice [2]) [mg/dL] | Mean total cholesterol concentration (ApoE−/− mice [2]) [mg/dL] | increase of mean serum small LDL particle levels ([3]; at eight weeks, United States population, statin alone (Table 14)) [%] | decrease of mean serum LDL levels ([3]; at eight weeks, United States subjects with baseline LDL of 72 mg/dl or greater, text restating Tables 15 and 19) [%] | decrease of mean serum LDL levels ([3]; at week eight, combined United States and Ukraine populations, Tables 16 and 18) [%] | decrease of mean serum LDL levels ([3]; at week four, combined United States and Ukraine populations, Tables 16 and 18) [%] | Observed change following administration: Mean serum [LDL] at week 4 [3, 4] [%] | Observed change following administration: Mean serum [LDL] at week 8 [3, 4] [%] | Observed change following administration: Mean serum [LDL] in ≧72 mg/dl subpopulation at week 8 [3, 4] [%] | Observed change following administration: Mean serum [small LDL particle] at week 8 [3, 4] | Observed change following administration: Mean serum [LDL] at week 8 ([3]; summary Table 22, A-002 alone, ezetimibe alone or A-002 plus ezetimibe) [%] |
| --- | --- | --- | --- | --- | --- | --- | --- | --- | --- | --- | --- | --- | --- |
| CC[C@H](C)C(=O)O[C@H]1C[C@H](O)C=C2C=C[C@H](C)[C@H](CC[C@@H](O)C[C@@H](O)CC(=O)O)[C@H]21 [Statin, pravastatin, reference compound] | −0.813 | 4.814 | 14.500 | 1405.417 | 13.26 | 4.40 | 2.15 | 3.36 | −3.36 | −2.15 | −4.40 | +13.26% |  |
| O=C1[C@H](CC[C@H](O)c2ccc(F)cc2)[C@@H](c2ccc(O)cc2)N1c1ccc(F)cc1 [ezetimibe, reference compound] |  |  |  |  |  |  |  |  |  |  |  |  | −1.7 |
